Results taken from patent publication US12391660B2, “Heteroaromatic acetamide derivative, and preparation and use thereof” (Hangzhou Westan Pharmaceutical Technology Co., Ltd, priority 2019, dated 2025).

Test system: asthmatic rats
Assay: Ovalbumin-induced asthma rat model (HE staining, lung tissue inflammation area, airway inflammation score)
Format: in vivo, SD rats
Text: 4. Effects of Compounds on Ovalbumin-Induced Asthma in Mouse and Rat Models
SPF-grade SD male rats (purchased from Zhejiang Academy of Medical Sciences, license number SCXK (Zhejiang) 2019-0002) with a body weight of 160-180 g; and SPF-grade female BABL/c mice (purchased from Zhejiang Weitong Lihua Experimental Animals Technology Co., Ltd., license number SCXK (Zhejiang) 2019-0001) with a body weight of 16-18 g were used. The above animals were raised by the Experimental Animal Center of Zhejiang Academy of Traditional Chinese Medicine.
Formulation of compound solution: compound was vortexed in a solvent system, dissolved by ultrasound, and prepared into a solution at a corresponding concentration, which was prepared just before use (the solvent system was composed of 5% Solutol HS 15, 5% DMSO and 90% physiological saline).
BABL/c mice or SD rats were randomly divided into: normal control group, model control group, dexamethasone group (0.72 mg/kg), and the respective test compound groups (one group for each dose), 10 mice in each group; 6 rats in each group.
Sensitization of rats: On Day 1 and Day 8, the model control group and the respective drug administration groups were intraperitoneally injected with 1 ml of 10% OVA sensitizing solution, and the normal group was intraperitoneally injected with an equal volume of normal saline.
Rat: from Day 15, the dexamethasone group and the respective test compound groups were intraperitoneally injected, 20 minutes before challenge, with the corresponding drugs with an injection volume of 0.3 ml/100 g; the model control group was intraperitoneally injected, 20 minutes before challenge, with an equal volume of solvent system; and the normal control group was not treated. Administration was conducted for 7 consecutive days. […]
The rat was anesthetized with 10% urethane at 1.3 ml/100 g volume, and the left lung tissue was taken and fixed in 4% neutral formaldehyde, paraffin-embedded according to routine operation, sectioned for HE staining. […] NIS-Elements D 3.2 software was used to manually integrate and measure the total area of lung tissue sections and the inflammation area under all fields of view, the total areas under each field of view were accumulated, and the percentage of the cumulative area of inflammation in the total area was calculated, wherein the percentage of inflammation area=cumulative area of inflammation/total area×100%.
All data were expressed as mean±standard deviation (x±s), and the data were processed by SPSS 20.0 statistical software. […]

[1] = intraperitoneal injection, vs model group, P<0.05, 0.01

Structure (SMILES): N#Cc1ccc(NC2(C(=O)N3CCN(c4ccc(C(F)(F)F)cc4)CC3)CCCC2)cc1 [Compound 1, 4-((1-(4-(4-(trifluoromethyl)phenyl)piperazine-1-carbonyl)cyclopentyl)amino)benzonitrile]
- lung tissue inflammation and inflammatory cell infiltration around the airway (HE x40) (compared with the model group): significant improvement
- airway inflammation score [1]: significantly decreased
- lung tissue inflammation area [1]: significantly decreased
